According to ChEMBL document CHEMBL5154863, “Design and synthesis of quinolinium-based derivatives targeting FtsZ for antibacterial evaluation and mechanistic study” (Eur J Med Chem, 2022):
Calls of active or inactive are those of the source. The rule behind the calls is not given here.

Legend:
[1] = biological target: T1, Cell division protein FtsZ (Staphylococcus aureus) (UniProt P0A031); test: Binding affinity to Staphylococcus aureus FtsZ assessed as increase in alpha helix structure at 8 ug/ml incubated for 30 mins by circular dichroism method (reference value: 30.5 %); conditions: dose 8.0 µg/ml
T1 sequence (whole entry): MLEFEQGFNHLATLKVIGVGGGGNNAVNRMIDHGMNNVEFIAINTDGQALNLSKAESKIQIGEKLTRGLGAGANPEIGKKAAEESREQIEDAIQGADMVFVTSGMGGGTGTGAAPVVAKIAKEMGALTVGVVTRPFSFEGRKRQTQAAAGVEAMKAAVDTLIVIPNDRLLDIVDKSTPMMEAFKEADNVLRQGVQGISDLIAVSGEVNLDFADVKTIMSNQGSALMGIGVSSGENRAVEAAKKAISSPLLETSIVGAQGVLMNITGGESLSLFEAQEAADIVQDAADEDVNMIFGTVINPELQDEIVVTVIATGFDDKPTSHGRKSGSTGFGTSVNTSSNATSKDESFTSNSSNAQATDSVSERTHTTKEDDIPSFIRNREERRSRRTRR

[2] = system: Staphylococcus aureus; test: Antibacterial activity against methicillin-resistant Staphylococcus aureus ATCC BAA41 assessed as fractional inhibitory concentration index incubated for 24 hrs by checker board assay; assay type: functional
[3] = Ratio of MBC for bactericidal activity against Enterococcus faecium ATCC 700221 to MIC for antibacterial activity against Enterococcus faecium ATCC 700221; assay type: functional
[4] = system: Staphylococcus aureus; test: Antibacterial activity against methicillin-resistant Staphylococcus aureus ATCC 33592 assessed as inhibition of bacterial growth incubated for 20 to 24 hrs by broth micro dilution method; assay type: functional; conditions: time 20-24 hrs
[5] = biological target: T2, Cell division protein FtsZ (Staphylococcus aureus, UniProt P0A031); test: Binding affinity to Staphylococcus aureus FtsZ assessed as dissociation constant by isothermal titration calorimetry
T2 sequence (P0A031 whole entry): T1 sequence (whole entry)

[6] = system: Escherichia coli; test: Antibacterial activity against Escherichia coli ATCC 8739 assessed as inhibition of bacterial growth incubated for 20 to 24 hrs by broth micro dilution method; assay type: functional; conditions: time 20-24 hrs
[7] = Cytotoxicity against mouse L929 cells incubated for 48 hrs by MTT assay; assay type: toxicity, cell-based
[8] = system: Staphylococcus aureus; test: Antibacterial activity against Staphylococcus aureus ATCC 29213 assessed as inhibition of bacterial growth incubated for 20 to 24 hrs by broth micro dilution method; assay type: functional; conditions: time 20-24 hrs
[9] = biological target: T1, Cell division protein FtsZ (Staphylococcus aureus); test: Induction of Staphylococcus aureus FtsZ polymerization expressed in Escherichia coli BL21 (DE3) assessed as increase in absorbance at 2 to 8 ug/ml by microplate reader method; conditions: dose 2-8 µg/ml
[10] = system: Acinetobacter baumannii; test: Antibacterial activity against multi-drug resistant Acinetobacter baumannii ATCC 19606 assessed as inhibition of bacterial growth incubated for 20 to 24 hrs by broth micro dilution method; assay type: functional; conditions: time 20-24 hrs
[11] = system: Staphylococcus aureus; test: Synergistic antibacterial activity against methicillin-resistant Staphylococcus aureus ATCC BAA41 assessed as inhibition of bacterial growth incubated for 24 hrs in presence of methicillin by checker board assay; assay type: functional
[12] = system: Erythrocyte; test: Hemolytic activity in Kunming mouse erythrocyte at 1 to 64 ug/ml incubated for 1 hr; assay type: toxicity, cell-based; conditions: dose 1-64 µg/ml
[13] = system: Bacillus subtilis; test: Induction of drug resistance against Bacillus subtilis CMCC (B) 63501 measured after 16 passages; assay type: functional; conditions: dose <= 64.0 µg/ml, time 30.0 min
[14] = system: Enterococcus faecium; test: Antibacterial activity against vancomycin-resistant Enterococcus faecium clinical isolate assessed as inhibition of bacterial growth incubated for 20 to 24 hrs by broth micro dilution method; assay type: functional; conditions: time 20-24 hrs
[15] = system: Bacillus subtilis; test: Antibacterial activity against Bacillus subtilis CMCC (B) 63501 assessed as inhibition of bacterial growth incubated for 20 to 24 hrs by broth micro dilution method; assay type: functional; conditions: time 20-24 hrs
[16] = system: Staphylococcus aureus; test: Antibacterial activity against vancomycin-intermediate Staphylococcus aureus Mu50 assessed as inhibition of bacterial growth incubated for 20 to 24 hrs by broth micro dilution method; assay type: functional; conditions: time 20-24 hrs
[17] = biological target: T1, Cell division protein FtsZ (Staphylococcus aureus); test: Induction of Staphylococcus aureus FtsZ polymerization expressed in Escherichia coli BL21 (DE3) assessed as increase in absorbance at 2 to 8 ug/ml in presence of GTP by microplate reader method; conditions: dose 2-8 µg/ml, DDE = dose-dependent effect
[18] = Ratio of MBC for bactericidal activity against Staphylococcus aureus ATCC 29213 to MIC for antibacterial activity against Staphylococcus aureus ATCC 29213; assay type: functional
[19] = system: Staphylococcus aureus; test: Antibacterial activity against methicillin-resistant Staphylococcus aureus ATCC 43300 assessed as inhibition of bacterial growth incubated for 20 to 24 hrs by broth micro dilution method; assay type: functional; conditions: time 20-24 hrs
[20] = system: Staphylococcus aureus; test: Antibacterial activity against Staphylococcus aureus ATCC 29213 assessed as assessed as reduction in viable bacterial count upto 8 times MIC measured after 8 hrs by time-kill kinetics assay; assay type: functional
[21] = system: Enterococcus faecalis; test: Antibacterial activity against Enterococcus faecalis ATCC 29212 assessed as inhibition of bacterial growth incubated for 20 to 24 hrs by broth micro dilution method; assay type: functional; conditions: time 20-24 hrs
[22] = system: Staphylococcus epidermidis; test: Antibacterial activity against Staphylococcus epidermidis ATCC 12228 assessed as inhibition of bacterial growth incubated for 20 to 24 hrs by broth micro dilution method; assay type: functional; conditions: time 20-24 hrs
[23] = biological target: T1, Cell division protein FtsZ (Staphylococcus aureus); test: Binding affinity to Staphylococcus aureus FtsZ assessed as decrease in beta turn structure at 8 ug/ml incubated for 30 mins by circular dichroism method (reference value: 17.4 %); set-up: scale not given: the % may be the effect or the level left; conditions: dose 8.0 µg/ml
[24] = system: Enterococcus faecium; test: Antibacterial activity against Enterococcus faecium ATCC 49624 assessed as inhibition of bacterial growth incubated for 20 to 24 hrs by broth micro dilution method; assay type: functional; conditions: time 20-24 hrs
[25] = system: Staphylococcus aureus; test: Induction of morphological changes in Staphylococcus aureus ATCC 29213 assessed as enlargement of cell size at 0.5 times MIC for 4 hrs by microscopic analysis; assay type: functional, organism-based
[26] = system: Escherichia coli; test: Antibacterial activity against NDM-1 expressing Escherichia coli ATCC BAA2469 assessed as inhibition of bacterial growth incubated for 20 to 24 hrs by broth micro dilution method; assay type: functional; conditions: time 20-24 hrs
[27] = biological target: T1, Cell division protein FtsZ (Staphylococcus aureus); test: Binding affinity to Staphylococcus aureus FtsZ assessed as decrease in other structure at 8 ug/ml for 30 mins by circular dichroism method (reference value: 34.5 %); set-up: scale not given: the % may be the effect or the level left; conditions: dose 8.0 µg/ml
[28] = system: Staphylococcus aureus; test: Bactericidal activity against Staphylococcus aureus ATCC 43300 assessed as inhibition of bacterial growth incubated for 24 hrs by resazurin dye based microtiter plate assay; assay type: functional
[29] = system: Staphylococcus aureus; test: Induction of drug resistance against Staphylococcus aureus ATCC 29213 assessed as fold increase in MIC after 16 passage; assay type: functional
[30] = system: Bacillus subtilis; test: Bactericidal activity against Bacillus subtilis CMCC (B) 63501 assessed as inhibition of bacterial growth incubated for 24 hrs by resazurin dye based microtiter plate assay; assay type: functional
[31] = system: Pseudomonas aeruginosa; test: Antibacterial activity against […] Pseudomonas aeruginosa ATCC 27853 assessed as inhibition of bacterial growth incubated for 20 to 24 hrs by broth micro dilution method; assay type: functional; conditions: time 20-24 hrs
[32] = system: Staphylococcus aureus; test: Bactericidal activity against Staphylococcus aureus ATCC 29213 assessed as inhibition of bacterial growth incubated for 24 hrs by resazurin dye based microtiter plate assay; assay type: functional
[33] = system: Staphylococcus aureus; test: Antibacterial activity against methicillin-resistant Staphylococcus aureus ATCC BAA41 assessed as inhibition of bacterial growth incubated for 24 hrs by checker board assay; assay type: functional
[34] = Ratio of MBC for bactericidal activity against Bacillus subtilis CMCC (B) 63501 to MIC for antibacterial activity against Bacillus subtilis CMCC (B) 63501; assay type: functional

CC1CCN(c2cc(/C=C/c3ccc(N(C)C)cc3)[n+](C)c3ccccc23)CC1.[I-]
Activity [1]: 41% | fractional inhibitory concentration index (FICI) [2]: 0.3125 | Ratio [3]: 4 | MIC [4]: 0.5 µg/mL | Kd [5]: 3.84 µM | MIC [6]: 64 µg/mL | IC50 at 48 h [7]: 12.8 µg/mL | MIC [8]: 1 µg/mL | Activity [9]: Active | MIC [10]: > 64 µg/mL | MIC [11]: 2 µg/mL | IC5 [12]: 64 µg/mL | Activity [13]: Active | MIC [14]: 4 µg/mL | MIC [15]: 4 µg/mL | MIC [16]: 1 µg/mL | Activity [17]: Dde | Ratio [18]: >4 | MIC [19]: 1 µg/mL | Activity [20]: 1000 CFU/ml | MIC [21]: 2 µg/mL | MIC [22]: 0.25 µg/mL | Activity [23]: 15.5% | MIC [24]: 8 µg/mL | Activity [25]: Active | MIC [26]: 64 µg/mL | Activity [27]: 15.1% | MBC [28]: 8 µg/mL | fold change (FC) [29]: 8 | MBC [30]: 4 µg/mL | MIC [31]: > 64 µg/mL | MBC [32]: 8 µg/mL | MIC [33]: 8 µg/mL | Ratio [34]: 1
